From patent publication US4444778A, “Method and composition for treating atherosclerosis” (priority 1982, dated 1984)
“Also recorded” adds a separate entry of the source.

What was measured:
[1] = test system: Smooth muscle cells (BASMC); experiment: Smooth muscle cell number, 96 h incubation with serotonin, PDGF or serotonin receptor blocker (Example 2, Table II); assay type: cell-based, bovine; conditions: for effect on serotonin-induced increase in smooth muscle cell number / Cell Number/Plate: 96 h, 2.5% platelet-poor plasma; for effect on serotonin-induced increase in smooth muscle cell number: similar = as with cyproheptadine; for Cell Number/Plate: mean ± SEM, n = 6
Procedure: Smooth muscle cells are grown from explants of bovine aortic media as described by Coughlin, et al (Platelet-Dependent Stimulation of Prostacyclin Synthesis by Platelet Derived Growth Factor, Nature, 288, pp. 600-602, 1980). Cells are seeded at 10^5 cells per 35 mm tissue culture well in Dulbecco's Modified Eagle Medium containing 10% calf serum and allowed to grow for 24 hours. The serum-containing medium is then removed and the cells are allowed to become quiescent in Medium 199 for 24 hours. The quiescent cultures are then incubated for 72 hours in Medium 199, with or without the mitogen to be tested. After the 72-hour incubation period, the cells are harvested for cell-number determination by Coulter Counter.
Smooth muscle cells are seeded and made quiescent as described in Example 1. Cultures are then treated with serotonin, PDGF or cyproheptadine, a serotonin receptor blocker. The cultures are then incubated for 96 hours in Medium 199 containing 2.5% platelet-poor plasma and the treatment to be tested.

Smooth muscle cells = experiment: 3H-thymidine incorporation into smooth muscle cells (Example 3, Table III); assay type: cell-based; conditions: for effect on 3H-thymidine incorporation / response to serotonin: cyproheptadine 10^-7 M, similar = as with cyproheptadine; for CPM/Well (3H-thymidine incorporation): about 36 h, mean ± SEM, n = 4; for % Increase (3H-thymidine incorporation): versus control
Procedure: In this experiment, stimulation of ^3 H-thymidine incorporation is used as an index of the ability of a compound to promote smooth muscle cell proliferation. Smooth muscle cells are seeded in 96 well Linbro racks (5 mm diameter/well) and allowed to grow for 72 hours. […] After approximately 36 hours, the cells are washed with saline, fixed with 10% TCA, washed with water, lysed with 1% SDS, and the lysate counted for ^3 H. This procedure allows the investigator to assess the amount of ^3 H-thymidine taken up by smooth muscle cells and incorporated into DNA.

[2] = test system: aortic smooth muscle cell proliferation after vascular injury; experiment: Specific activity of aortic smooth muscle cell DNA after balloon catheter vascular injury (Example 4, Table IV); assay type: in vivo, rat; set-up: Specific Activity for smooth muscle cell DNA, repeat test: concentration or dose not given beside the values; conditions: for inhibition of injury-induced smooth muscle cell proliferation: after experimental vascular injury, similar = as with methiothepin 10 mg/kg i.p.; for dose dependent Specific Activity, methiothepin: vehicle = 100; for Specific Activity for smooth muscle cell DNA, repeat test: untreated 100, vehicle 92, standard error (%) in own column
Procedure: Rat aortas are denuded of endothelium by passing a catheter with an inflated balloon at its tip down the length of the blood vessel. In animal models, this type of vascular injury has been shown by Goldberg, et al (Vascular Smooth Muscle Cell Kinetics: A New Assay For Studying Patterns of Cellular Proliferation In Vivo, Science, 205, 920-922, 1979), to stimulate formation of vascular lesions resembling those of human atherosclerosis 48 hours after injury. The rats are injected intravenously with ^3 H-thymidine, which is incorporated into the DNA of proliferating smooth muscle cells. After one hour, the specific activity of aortic smooth muscle cell DNA is determined and used as an index of smooth muscle cell proliferation in the injured vessel wall.

[3] = test system: vascular lesions of the aorta after de-endothelialization; experiment: Lesion area after aortic de-endothelialization (Example 5, Table V); assay type: in vivo, rat (male Sprague-Dawley); conditions: 25 mg/kg by gavage
From the text: The use of serotonin antagonists in preventing or impeding arteriosclerotic lesion is indicated in vivo essentially in accordance with the de-endothelialization procedure of Tiell, et al (Influence of the Pituitary on Arterial Intima Proliferation in the Rat, Circulation Research, Vol. 42, No. 5, […], May 1978). Male Sprague-Dawley rats weighing 300-360 grams are fed a constant formula rodent lab chow and water ad libitum for two weeks prior to the start of the test. For two days before de-endothelialization and for the following 14 days until sacrifice, the animals receive either a placebo or 1 to 200 milligrams per kilogram per day of test compound. On the day of de-endothelialization, the drug is administered intravenously at one-tenth the oral dosage. De-endothelialization is carried out in the aortas of the anesthetized animals by balloon catheterization. The animals are weighed daily from the time of dosing and their behavior is recorded 3 to 4 hours following administration of the test compound. Fourteen days after catheterization, whole body perfusion fixation is carried out at 37° C. with 3% buffered glutaraldehyde in 0.15 M sodium cacodylate at pH 7.4 under 90-100 millimeters hydrostatic pressure. The aorta is removed, cut into 10 equal segments, and following two additional hours in the buffered glutaraldehyde, is treated with 1% osmium tetroxide, dehydrated, infiltrated with Squer's resin and cured. The segments are stained with Stevenal's blue and basic fuchsin, and the lesion areas is determined with a zeiss standard microscope and Videoplan computerized image analyzer. Please see examples for results.
Male Sprague-Dawley rats weighing 300-360 grams are individually ear tagged, housed and allowed to acclimate for two weeks prior to the start of the test. A constant formula rodent lab chow from Ralston Purina and water are available to the animals ad libitum.
For two days prior to de-endothelialization and for 14 days after, pizotyline at a dose of 25 milligrams per kilogram and placebo are administered by gavage in physiological saline to nine drug animals and 19 control animals. All animals are dosed between 8:00 and 10:00 A.M. daily. […] The animals are weighed daily at the time of dosing and behavior for each animal is recorded three to four hours after dosing. […]
On the day of de-endothelialization, the animals are anesthetized by ether inhalation and catheterization is carried out by the following procedure. […] The catheter balloon tip is advanced cephaled to the aortic arch region as determined through external catheter demarcations and inflated to a pre-established maximum diameter with approximately 900 mm Hg air pressure. […]

[4] = test system: Smooth muscle cells (explants of bovine aortic media); experiment: Smooth muscle cell number, 72 h incubation with mitogen (Example 1, Table I); assay type: cell-based; conditions: for Cell Number/Plate: 72 h, mean ± SEM, n = 6; for smooth muscle proliferation in cell culture: with and without 2% human platelet-poor plasma
Procedure: After the 72-hour incubation period, the cells are harvested for cell-number determination by Coulter Counter.

[5] = test system: Smooth muscle cells (explants of bovine aortic media); conditions: shown by others; cited from earlier work

Which “effect on serotonin-induced increase in smooth muscle cell number” value [1] does the source give for CN1CCC(=C2c3ccccc3C=Cc3ccccc32)CC1 [Cyproheptadine] here?
Its value is “attenuated”.

What about the “effect on 3H-thymidine incorporation / response to serotonin” value (Smooth muscle cells; PDGF 1 ng/ml) of the same molecule?
Its value is “attenuates this response to serotonin”.

For CSc1ccc2c(c1)C(N1CCN(C)CC1)Cc1ccccc1S2 (centres unmarked) [Methiothepin], which “inhibition of injury-induced smooth muscle cell proliferation” value (shortened to “inhibition”) ([2]; b.i.d.) is on record?
Its value is “marked inhibition; also recorded: remarkably effective”.

What about the “dose dependent Specific Activity, methiothepin” value (from here on “dose dependent Specific Activity”) ([2]; methiothepin 0.3 mg/kg) of the same molecule?
The value was 51.

And the “dose dependent Specific Activity” value ([2]; methiothepin 1.0 mg/kg)?
The value was 24.

What about the “dose dependent Specific Activity” value ([2]; methiothepin 3.0 mg/kg) of the same molecule?
Its value is 23.

What about the “Specific Activity of aortic smooth muscle cell DNA” value ([2]; methiothepin 10 mg/kg i.p., b.i.d., control 91.6 ± 13.7, mean ± standard error (N = 6)) of the same molecule?
Its value is 18.1 ± 5.3 CPM/ugDNA.

And the “dose dependent Specific Activity” value ([2]; methiothepin 10.0 mg/kg)?
Its value is 20.

And the “Specific Activity for smooth muscle cell DNA, repeat test” value [2]?
The value was 23 % of control.

Which “inhibition” value ([2]; b.i.d.) does the source give for CN1CCC(=C2c3ccccc3CCc3sccc32)CC1 [Pizotyline, 4-[1-methyl-4-piperidylidene]-9,10-dihydro-4H-benzo[4,5]cyclohepta[1,2-b]thiophene] here?
The value was “remarkably effective”.

What about the “Mean Lesion Area, Abdominal” value ([3]; abdominal, 2 days before and 14 days after, normalized to 1,000 μm length, control 60,310.3) of the same molecule?
Its value is 27,135.4 Square Microns.

And the “reduction of lesion formation, abdominal segments” value ([3]; abdominal, compared to control)?
Its value is 55%.

What about the “Mean Lesion Area, Thoracic” value ([3]; thoracic, 2 days before and 14 days after, normalized to 1,000 μm length, control 50,283.1) of the same molecule?
The value was 11,834.8 Square Microns.

What about the “mean reduction of lesion formation, thoracic segments” value ([3]; thoracic, compared to control lesion areas) of the same molecule?
Its value is 77%.

Which “Specific Activity for smooth muscle cell DNA, repeat test” value [2] does the source give for COC(=O)[C@H]1[C@H]2C[C@@H]3c4[nH]c5cc(OC)ccc5c4CCN3C[C@H]2C[C@@H](OC(=O)c2cc(OC)c(OC)c(OC)c2)[C@@H]1OC [Reserpine] here?
Its value is 68 % of control.

With NCCc1c[nH]c2ccc(O)cc12 [Serotonin] as the molecule, how does the “Cell Number/Plate” value ([4]; No Plasma, serotonin 10^-5 M) read?
The value was 8.34 ± 0.43 ×10^-5.

What about the “Cell Number/Plate” value ([4]; Plasma (2% human platelet-poor plasma), serotonin 10^-5 M) of the same molecule?
Its value is 12.19 ± 0.13 ×10^-5.

And the “smooth muscle proliferation in cell culture” value [4]?
Its value is “more smooth muscle cells are present; also recorded: potent promoter of smooth muscle proliferation”.

What about the “effect on serotonin-induced increase in smooth muscle cell number” value [1] of the same molecule?
The value was “increases the number of smooth muscle cells”.

And the “Cell Number/Plate” value ([1]; serotonin 10^-5 M)?
The value was 7.68 ± 0.12 ×10^-5.

What about the “% Maximum” value ([1]; serotonin 10^-5 M, relative to 10% Fetal Calf Serum = 100) of the same molecule?
Its value is 33%.

And the “effect on 3H-thymidine incorporation / response to serotonin” value (Smooth muscle cells; PDGF 1 ng/ml)?
The value was “stimulates smooth muscle cell proliferation”.

What about the “CPM/Well (3H-thymidine incorporation)” value (Smooth muscle cells; serotonin 10^-6 M) of the same molecule?
Its value is 306.4 ± 3.1 CPM/Well (×10^-3).

What about the “% Increase (3H-thymidine incorporation)” value (Smooth muscle cells; serotonin 10^-6 M) of the same molecule?
Its value is 240%.

And the “CPM/Well (3H-thymidine incorporation)” value (Smooth muscle cells; serotonin 10^-7 M)?
Its value is 139.8 ± 11.9 CPM/Well (×10^-3).

And the “% Increase (3H-thymidine incorporation)” value (Smooth muscle cells; serotonin 10^-7 M)?
The value was 55%.

And the “inhibition” value ([2]; b.i.d.)?
Its value is “important in mediating smooth muscle cell proliferation after vascular injury”.

Which results are given for PDGF?
Cell Number/Plate ([4]; No Plasma, PDGF 8 ng/ml): 9.65 ± 0.29 ×10^-5; Cell Number/Plate ([4]; Plasma (2% human platelet-poor plasma), PDGF 8 ng/ml): 14.24 ± 0.04 ×10^-5; smooth muscle proliferation in cell culture [4]: active; Cell Number/Plate ([1]; PDGF 0.5 ng/ml, alone or with serotonin / cyproheptadine as in label): 8.11 ± 0.23 ×10^-5; % Maximum ([1]; PDGF 0.5 ng/ml, alone or with serotonin / cyproheptadine as in label, relative to 10% Fetal Calf Serum): 39%; Cell Number/Plate ([1]; PDGF 4.0 ng/ml, alone or with serotonin / cyproheptadine as in label): 10.66 ± 0.16 ×10^-5; % Maximum ([1]; PDGF 4.0 ng/ml, alone or with serotonin / cyproheptadine as in label, relative to 10% Fetal Calf Serum): 72%; CPM/Well (3H-thymidine incorporation) (Smooth muscle cells; PDGF 1 ng/ml): 454.7 ± 28.3 CPM/Well (×10^-3); % Increase (3H-thymidine incorporation) (Smooth muscle cells; PDGF 1 ng/ml): 405%; effect on 3H-thymidine incorporation / response to serotonin (Smooth muscle cells; PDGF 1 ng/ml): increase thymidine incorporation; mitogen for smooth muscle cells [5]: mitogen for smooth muscle cells
